# Test results: patent publication US20130158362A1 (INFACARE PHARMACEUTICAL CORPORATION, priority 2011, published 2013)
# System: total serum bilirubin (TSB)
# Experiment: Phase 2b trial: total serum bilirubin (TSB), adjusted and unadjusted, change from baseline
# Assay type: in vivo, human
# Parameters: total serum bilirubin / total serum bilirubin, Delta (change from baseline) / Change from baseline of total serum bilirubin: unit not given here
# Details: for change from baseline in adjusted TSB, LS mean difference versus placebo, MMRM / change from baseline in adjusted TSB, LS means (SEM), MMRM: observed case
# Experimental: Three cohorts of subjects were recruited. This clinical study was designed to evaluate safety and efficacy parameters in each cohort.
# Scheduled assessments (including TSB) occurred before treatment and at 0.75 and 2 hours (or 1.5 and 3 hours, depending on PK blood sampling assignment); 6, 12, 24, 48, and 72 hours; and 14 and 30 (except TSB) days after treatment or early termination.
# The primary efficacy endpoint was the change in adjusted TSB from baseline to 48 hours after treatment. The adjusted TSB was a calculation of the percentage variance of the TSB level from the age specific threshold for PT initiation per the AAP Guidelines, i.e., an indication of the distance below the PT threshold by time.
# The Secondary Efficacy Endpoints were the change from baseline in unadjusted TSB at 48 hours after treatment, change from baseline in adjusted and unadjusted TSB at various other time points after treatment, percent change from baseline in unadjusted TSB, proportion of subjects who require PT/exchange transfusion (ET), time to PT/ET, duration of PT and time to hospital discharge.
# Intent-to-treat population (ITT): Defined as all subjects who were randomly assigned treatment in the clinical study, had received IMP, and had at least 1 post baseline TSB measurement during the first 48 hours after treatment. Subjects were summarized based on randomized treatment.
# Analysis of Efficacy Parameters: The primary efficacy analysis applied the analysis of covariance (ANCOVA) method to determine if there was a significant difference between treatment groups in change in adjusted TSB levels from baseline to 48 hours post baseline after controlling for the effects of gestational age and adjusted baseline TSB levels. If assumptions of ANCOVA appeared to be violated, a Wilcoxon rank-sum test could be performed instead. Time-to-event variables were analyzed using the Kaplan-Meier method, and Kaplan-Meier survival curves were presented.
# [1] = 4.5 mg/kg IM, 24 h, ITT, LOCF, ANCOVA
# [2] = 4.5 mg/kg IM, 48 h/early termination, ITT, LOCF
# [3] = 4.5 mg/kg IM, 48 h, ITT, LOCF, ANCOVA
# [4] = 4.5 mg/kg IM, 48 hours, intent to treat, preliminary data
# [5] = 4.5 mg/kg IM, 72 h, ITT, LOCF, ANCOVA
# [6] = 4.5 mg/kg IM, 14 days/early termination, ITT, LOCF
# [7] = 4.5 mg/kg IM, 14 days/early termination, ITT, LOCF, ANCOVA
# [8] = 4.5 mg/kg versus the placebo group, 48 Hours/Early termination, PP Population, ANCOVA
# [9] = 4.5 mg/kg, 48 Hours/Early termination, PP Population, LOCF
# [10] = 4.5 mg/kg, 6 hrs, unadjusted TSB, ITT Population
# [11] = 4.5 mg/kg, 12 hrs, unadjusted TSB, ITT Population
# [12] = 4.5 mg/kg, 24 hrs, unadjusted TSB, ITT Population
# [13] = 4.5 mg/kg, 48 hrs, unadjusted TSB, ITT Population
# [14] = 4.5 mg/kg, baseline, PP Population
# [15] = 4.5 mg/kg, baseline, unadjusted TSB, ITT Population
substance,measurement,setting,value
tin IV mesoporphyrin IX dichloride [Stannsoporfin],"change from baseline in adjusted TSB, Median","4.5 mg/kg IM, 24 h, ITT, LOCF",−11.15%
same,"change from baseline in unadjusted TSB, Mean (SD)","4.5 mg/kg IM, 24 h, ITT, LOCF",0.93 (1.990) mg/dL
same,"change from baseline in unadjusted TSB, Median","4.5 mg/kg IM, 24 h, ITT, LOCF",1.20 mg/dL
same,"unadjusted TSB, Mean (SD)","4.5 mg/kg IM, 24 h, ITT, LOCF",10.52 (2.668) mg/dL
same,"unadjusted TSB, Median","4.5 mg/kg IM, 24 h, ITT, LOCF",9.66 mg/dL
same,"change from baseline in adjusted TSB, LS mean (SEM)",[1],−11.59 (5.674) %
same,"change from baseline in adjusted TSB, LS mean difference versus placebo",[1],−11.50%
same,"change from baseline in unadjusted TSB, LS Mean (SEM)",[1],1.05 (0.665) mg/dL
same,"change from baseline in unadjusted TSB, LS Mean Difference versus placebo",[1],-1.70 mg/dL
same,"change from baseline in adjusted TSB, LS mean difference versus placebo, MMRM","4.5 mg/kg IM, 24 h, ITT",−14.70%
same,"change from baseline in adjusted TSB, LS means (SEM), MMRM","4.5 mg/kg IM, 24 h, ITT",−16.26 (5.495) %
same,"adjusted TSB, Mean (SD)",[2],−34.14 (14.733) %
same,"adjusted TSB, Median",[2],−32.00%
same,"change from baseline in adjusted TSB, Mean (SD)","4.5 mg/kg IM, 48 h, ITT, LOCF",−24.95 (19.261) %
same,"change from baseline in adjusted TSB, Median","4.5 mg/kg IM, 48 h, ITT, LOCF",−19.95%
same,"change from baseline in unadjusted TSB, Mean (SD)","4.5 mg/kg IM, 48 h, ITT, LOCF",0.80 (2.788) mg/dL
same,"change from baseline in unadjusted TSB, Median","4.5 mg/kg IM, 48 h, ITT, LOCF",1.45 mg/dL
same,"unadjusted TSB, Mean (SD)","4.5 mg/kg IM, 48 h, ITT, LOCF",10.39 (2.650) mg/dL
same,"unadjusted TSB, Median","4.5 mg/kg IM, 48 h, ITT, LOCF",10.35 mg/dL
same,"change from baseline in adjusted TSB, LS mean (SEM) (primary endpoint)",[3],−16.51 (6.925) %
same,"change from baseline in adjusted TSB, LS mean difference versus placebo",[3],−14.93%
same,"change from baseline in unadjusted TSB, LS Mean (SEM)",[3],1.60 (1.020) mg/dL
same,"change from baseline in unadjusted TSB, LS Mean Difference versus placebo",[3],-2.63 mg/dL
same,"change from baseline in adjusted TSB, LS mean (SEM) (primary endpoint)","4.5 mg/kg IM, 48 h, ITT, LOCF, ANCOVA, listed as stannsoporfin",16.5%
same,"change from baseline in adjusted TSB, LS mean difference versus placebo, MMRM","4.5 mg/kg IM, 48 h, ITT",−20.66%
same,"change from baseline in adjusted TSB, LS means (SEM), MMRM","4.5 mg/kg IM, 48 h, ITT",−27.34 (7.287) %
same,total serum bilirubin,[4],10.39 ± 2.7
same,"total serum bilirubin, Delta (change from baseline)",[4],0.80 ± 2.8
same,"total serum bilirubin, Delta (change from baseline)","4.5 mg/kg IM, 48 hours, treated per protocol, preliminary data",0.04 ± 3.1
same,"adjusted TSB, Mean (SD)","4.5 mg/kg IM, 72 h/early termination, ITT, LOCF",−38.38 (16.637) %
same,"change from baseline in adjusted TSB, Mean (SD)","4.5 mg/kg IM, 72 h, ITT, LOCF",−29.19 (19.225) %
same,"change from baseline in adjusted TSB, Median","4.5 mg/kg IM, 72 h, ITT, LOCF",−21.45%
same,"change from baseline in unadjusted TSB, Mean (SD)","4.5 mg/kg IM, 72 h, ITT, LOCF",0.15 (3.740) mg/dL
same,"change from baseline in unadjusted TSB, Median","4.5 mg/kg IM, 72 h, ITT, LOCF",1.90 mg/dL
same,"unadjusted TSB, Mean (SD)","4.5 mg/kg IM, 72 h, ITT, LOCF",9.73 (3.672) mg/dL
same,"unadjusted TSB, Median","4.5 mg/kg IM, 72 h, ITT, LOCF",11.15 mg/dL
same,"change from baseline in adjusted TSB, LS mean (SEM)",[5],−19.00 (8.184) %
same,"change from baseline in adjusted TSB, LS mean difference versus placebo",[5],−14.25%
same,"change from baseline in unadjusted TSB, LS Mean (SEM)",[5],1.38 (1.305) mg/dL
same,"change from baseline in unadjusted TSB, LS Mean Difference versus placebo",[5],-3.57 mg/dL
same,"change from baseline in unadjusted TSB, Mean (SD)",[6],−4.28 (3.828) mg/dL
same,"change from baseline in unadjusted TSB, Median",[6],-5.73 mg/dL
same,"unadjusted TSB, Mean (SD)",[6],5.31 (4.596) mg/dL
same,"unadjusted TSB, Median",[6],2.98 mg/dL
same,"change from baseline in unadjusted TSB, LS Mean (SEM)",[7],−3.02 (1.524) mg/dL
same,"change from baseline in unadjusted TSB, LS Mean Difference versus placebo",[7],-0.72 mg/dL
same,"48 Hours/Early termination change from baseline in unadjusted TSB, LS mean difference",[8],-2.82 mg/dL
same,"P-value of LS mean difference, change from baseline in unadjusted TSB",[8],0.030
same,"48 Hours/Early termination change from baseline in unadjusted TSB, Max",[9],3.6 mg/dL
same,"48 Hours/Early termination change from baseline in unadjusted TSB, Mean (SD)",[9],0.40 (3.111) mg/dL
same,"48 Hours/Early termination change from baseline in unadjusted TSB, Median",[9],0.70 mg/dL
same,"48 Hours/Early termination change from baseline in unadjusted TSB, Min",[9],-3.4 mg/dL
same,"48 Hours/Early termination unadjusted TSB, Max",[9],13.4 mg/dL
same,"48 Hours/Early termination unadjusted TSB, Mean (SD)",[9],9.88 (2.807) mg/dL
same,"48 Hours/Early termination unadjusted TSB, Median",[9],10.00 mg/dL
same,"48 Hours/Early termination unadjusted TSB, Min",[9],5.6 mg/dL
same,"48 Hours/Early termination change from baseline in unadjusted TSB, LS mean (SEM)","4.5 mg/kg, 48 Hours/Early termination, PP Population, LOCF, ANCOVA",1.11 (1.095) mg/dL
same,"6 hrs Percent Change from Baseline in TSB, Max",[10],26.4%
same,"6 hrs Percent Change from Baseline in TSB, Mean (SD)",[10],17.33 (5.373) %
same,"6 hrs Percent Change from Baseline in TSB, Min",[10],10.7%
same,"6 hrs TSB, Max",[10],14.8 mg/dL
same,"6 hrs TSB, Mean (SD)",[10],11.31 (2.237) mg/dL
same,"6 hrs TSB, Min",[10],7.6 mg/dL
same,"12 hrs Percent Change from Baseline in TSB, Max",[11],29.2%
same,"12 hrs Percent Change from Baseline in TSB, Mean (SD)",[11],20.16 (6.326) %
same,"12 hrs Percent Change from Baseline in TSB, Min",[11],9.8%
same,"12 hrs TSB, Max",[11],14.8 mg/dL
same,"12 hrs TSB, Mean (SD)",[11],11.54 (2.067) mg/dL
same,"12 hrs TSB, Min",[11],8.0 mg/dL
same,"24 hrs Percent Change from Baseline in TSB, Max",[12],43.8%
same,"24 hrs Percent Change from Baseline in TSB, Mean (SD)",[12],10.75 (23.016) %
same,"24 hrs Percent Change from Baseline in TSB, Median",[12],12.15%
same,"24 hrs Percent Change from Baseline in TSB, Min",[12],−14.8%
same,"24 hrs TSB, Max",[12],14.0 mg/dL
same,"24 hrs TSB, Mean (SD)",[12],10.52 (2.668) mg/dL
same,"24 hrs TSB, Min",[12],7.7 mg/dL
same,"48 hrs Percent Change from Baseline in TSB, Max",[13],56.3%
same,"48 hrs Percent Change from Baseline in TSB, Mean (SD)",[13],14.87 (33.167) %
same,"48 hrs Percent Change from Baseline in TSB, Min",[13],−37.7%
same,"48 hrs TSB, Max",[13],13.4 mg/dL
same,"48 hrs TSB, Mean (SD)",[13],10.69 (2.708) mg/dL
same,"48 hrs TSB, Min",[13],5.6 mg/dL
same,mean TSB levels,"4.5 mg/kg, 14 days after treatment (text, not LOCF table)",2.94 mg/dL
same,"Baseline unadjusted TSB, Max",[14],12.8 mg/dL
same,"Baseline unadjusted TSB, Mean (SD)",[14],9.47 (2.319) mg/dL
same,"Baseline unadjusted TSB, Median",[14],9.00 mg/dL
same,"Baseline unadjusted TSB, Min",[14],6.4 mg/dL
same,"Baseline TSB, Max",[15],12.8 mg/dL
same,"Baseline TSB, Mean (SD)",[15],9.59 (1.911) mg/dL
same,"Baseline TSB, Min",[15],6.4 mg/dL
same,time after administration at which an effect begins,"bilirubin levels, FIG. 7",6 to 12 h
